#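 GI50 is the concentration that inhibits growth by half. Definition used: TGI = concentration required for complete inhibition of growth.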
# How the values were obtained:
# Test in all cases: DTP human tumour cell line panel, 384-well format
# DU-145 prostate = tested on: DU-145 prostate
# HCT-15 colon = tested on: HCT-15 colon
# HOP-92 NSCLC = tested on: HOP-92 NSCLC
# HT29 colon = tested on: HT29 colon
# MDA-MB-231 breast = tested on: MDA-MB-231 breast
# NCI-H23 lung = tested on: NCI-H23 lung
# OVCAR-5 ovarian = tested on: OVCAR-5 ovarian
# OVCAR-8 ovarian = tested on: OVCAR-8 ovarian
# PC-3 prostate = tested on: PC-3 prostate
# SF-295 CNS = tested on: SF-295 CNS
# SF-539 CNS = tested on: SF-539 CNS
# U251 glioblastoma = tested on: U251 glioblastoma
# UACC-257 melanoma = tested on: UACC-257 melanoma
SMILES,GI50 (DU-145 prostate) [µM],TGI (DU-145 prostate) [µM],GI50 (HCT-15 colon) [µM],TGI (HCT-15 colon) [µM],GI50 (HOP-92 NSCLC) [µM],TGI (HOP-92 NSCLC) [µM],GI50 (HT29 colon) [µM],TGI (HT29 colon) [µM],GI50 (MDA-MB-231 breast) [µM],TGI (MDA-MB-231 breast) [µM],GI50 (NCI-H23 lung) [µM],TGI (NCI-H23 lung) [µM],GI50 (OVCAR-5 ovarian) [µM],TGI (OVCAR-5 ovarian) [µM],GI50 (OVCAR-8 ovarian) [µM],TGI (OVCAR-8 ovarian) [µM],GI50 (PC-3 prostate) [µM],TGI (PC-3 prostate) [µM],GI50 (SF-295 CNS) [µM],TGI (SF-295 CNS) [µM],further results
COc1ccc2c(Oc3ccc(NC(=O)c4c(C)n(CC(C)(C)O)n(-c5ccccc5)c4=O)nc3)ccnc2c1,8.18,> 100,6.05,> 100,10.4,41.1,39.9,> 100,9.28,29.1,10.8,> 100,37.8,> 100,13.8,> 100,18.5,> 100,13.9,> 100,GI50 (SF-539 CNS): 10.1 µM; TGI (SF-539 CNS): 64 µM; GI50 (U251 glioblastoma): 24.7 µM; TGI (U251 glioblastoma): > 100 µM; GI50 (UACC-257 melanoma): 25.1 µM; TGI (UACC-257 melanoma): > 100 µM
Cn1cc(-c2ccc(-c3cncc(Cl)c3N3CCC4(CCNC4=O)CC3)cc2)cn1,11,62.2,14.6,> 66.4,40.6,> 100,9.55,> 93.3,17.1,> 76.7,22.5,59,> 100,> 100,25.1,> 100,26.3,> 100,25.2,> 87.2,GI50 (SF-539 CNS): 41.4 µM; TGI (SF-539 CNS): > 100 µM; GI50 (U251 glioblastoma): 30.4 µM; TGI (U251 glioblastoma): > 80.1 µM; GI50 (UACC-257 melanoma): 35.6 µM; TGI (UACC-257 melanoma): > 71.3 µM

# Source: PubChem BioAssay (NCI)
